Where a name gives a salt, the structure may show the parent alone.
Legend:
[1] = target: T1, Full-length human PRMT1 isoform 1 (Homo sapiens, UniProt Q99873); assay: PRMT1 biochemical assay (3H-SAM Flashplate, peptide substrate)
T1 construct: GST-tagged PRMT1; made in house; host or cells: High Five insect cells (baculovirus, pFastBacI)
How it was run: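 Tritiated methyl transfer from 3H-SAM onto biotinylated peptide, captured on streptavidin Flashplates and counted. Baculovirus-expressed GST-PRMT1 and compound were preincubated 30 min at room temperature in Bicine buffer pH 7.6. Cold SAM at 300 uM final ended the reaction.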

[2] = target: T2, Full-length human PRMT6 (Homo sapiens, UniProt Q96LA8); assay: PRMT6 biochemical assay (3H-SAM Flashplate, peptide substrate)
T2 construct: Flag-PRMT6-His was eluted with 200 ug/ml FLAG peptide in the same buffer; made in house; host or cells: HEK 293F cells (BacMam virus, pFastBacMam)
T2 sequence (Q96LA8 with tags, fused parts or gaps): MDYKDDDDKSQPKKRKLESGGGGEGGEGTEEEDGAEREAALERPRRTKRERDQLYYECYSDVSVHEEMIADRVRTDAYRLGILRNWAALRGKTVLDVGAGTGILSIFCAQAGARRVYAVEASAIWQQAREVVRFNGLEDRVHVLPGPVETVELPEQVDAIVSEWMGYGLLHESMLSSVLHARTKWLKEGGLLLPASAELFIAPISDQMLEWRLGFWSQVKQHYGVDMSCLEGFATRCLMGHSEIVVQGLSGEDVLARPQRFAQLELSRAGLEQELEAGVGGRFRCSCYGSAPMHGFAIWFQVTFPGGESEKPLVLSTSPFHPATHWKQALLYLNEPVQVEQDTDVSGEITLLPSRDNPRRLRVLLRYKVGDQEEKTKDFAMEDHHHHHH
How it was run: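 Read-out is 3H-methylated histone H4 (36-50) peptide bound to streptavidin Flashplates after a cold-SAM stop. Baculovirus-expressed Flag-PRMT6-His met compound for 30 min at room temperature before SAM and peptide; Bicine pH 7.6 buffer. IC50 fitted to % inhibition normalized to SAH (min) and DMSO (max).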

T1 sequence (Q99873 with tags, fused parts or gaps): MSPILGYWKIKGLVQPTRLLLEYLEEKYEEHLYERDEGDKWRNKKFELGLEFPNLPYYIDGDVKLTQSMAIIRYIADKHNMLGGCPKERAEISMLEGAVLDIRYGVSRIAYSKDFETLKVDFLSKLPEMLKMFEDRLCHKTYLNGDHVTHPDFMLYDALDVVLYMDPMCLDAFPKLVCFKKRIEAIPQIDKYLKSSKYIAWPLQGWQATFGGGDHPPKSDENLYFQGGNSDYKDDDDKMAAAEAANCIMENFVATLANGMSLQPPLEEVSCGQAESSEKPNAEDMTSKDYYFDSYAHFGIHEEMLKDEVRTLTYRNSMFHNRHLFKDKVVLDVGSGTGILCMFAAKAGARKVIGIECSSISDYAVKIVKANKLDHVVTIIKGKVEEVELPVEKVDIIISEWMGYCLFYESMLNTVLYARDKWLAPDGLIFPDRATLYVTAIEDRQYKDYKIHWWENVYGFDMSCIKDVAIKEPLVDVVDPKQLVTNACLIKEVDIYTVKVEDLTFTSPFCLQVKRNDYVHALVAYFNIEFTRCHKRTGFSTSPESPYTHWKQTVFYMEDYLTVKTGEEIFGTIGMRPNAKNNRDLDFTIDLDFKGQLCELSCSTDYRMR

SMILES	IC50 [1]	IC50 [2]
CNCCN(C)Cc1cn(CC(=O)OC)nc1-c1ccc(OC(C)C)cc1 [Compound 248]	101 to 1000 nM	101 to 1000 nM
CNCCN(C)Cc1cnn(CC(=O)OC)c1-c1ccc(OC(C)C)cc1 [Compound 249]	101 to 1000 nM	101 to 1000 nM
CNCCN(C)Cc1cn(CC(=O)O)nc1-c1ccc(OC(C)C)cc1 [Compound 250]	101 to 1000 nM	3010 to 10000 nM
CNCCN(C)Cc1cn(CC(N)=O)nc1-c1ccc(OC(C)C)cc1 [Compound 251]	101 to 1000 nM	1010 to 3000 nM
CCn1ncc(CN(C)CCNC)c1-c1ccc(OC(C)C)cc1 [Compound 252]	< 100 nM	101 to 1000 nM
CNCCN(C)Cc1cn(CCOC)nc1-c1ccc(OC(C)C)cc1 [Compound 253, N1-((3-(4-isopropoxyphenyl)-1-(2-methoxyethyl)-1H-pyrazol-4-yl)methyl)-N1,N2-dimethylethane-1,2-diamine hydrochloride]	101 to 1000 nM	101 to 1000 nM
CNCCN(C)Cc1cn(C2CCC2)nc1-c1ccc(OC(C)C)cc1 [Compound 254, N1-((1-cyclobutyl-3-(4-isopropoxyphenyl)-1H-pyrazol-4-yl)methyl)-N1,N2-dimethylethane-1,2-diamine hydrochloride]	< 100 nM	101 to 1000 nM
CNCCN(C)Cc1cnn(C2CCCC2)c1-c1ccc(OC(C)C)cc1 [Compound 255]	< 100 nM	< 100 nM
CNCCN(C)Cc1cn(C2CCCCC2)nc1-c1ccc(OC(C)C)cc1 [Compound 256]	101 to 1000 nM	101 to 1000 nM
C=C(C)C(=O)Nc1cccc(-c2[nH]ncc2CN(C)CCNC)c1 [Compound 257]	101 to 1000 nM	101 to 1000 nM
C=CC(=O)Nc1cccc(-c2[nH]ncc2CN(C)CCNC)c1 [Compound 258]	< 100 nM	101 to 1000 nM

Source: US9346761B2, “Arginine methyltransferase inhibitors and uses thereof” (Epizyme, Inc., priority 2013, dated 2016)
